Assay [1] deals with HeLa cells. The assay is described as follows: Proliferation assay, HeLa. The class given is cell-based. The following applies: Homo sapiens, 96 h, 4 days, crystal violet, read-out: Inhibition of HeLa cell proliferation IC50. On the procedure:
(§1) Cultivated tumour cells (HeLa, human cervical tumour cells, ATCC CCL-2; NCI-H460, human non-small cell lung carcinoma cells, ATCC HTB-177; DU 145, hormone-independent human prostate carcinoma cells, ATCC HTB-81; HeLa-MaTu-ADR, multidrug-resistant human cervical carcinoma cells, EPO-GmbH Berlin; Caco-2, human colorectal carcinoma cells, ATCC HTB-37; B16F10, mouse melanoma cells, ATCC CRL-6475) were plated at a density of 5,000 cells/well (DU145, HeLa-MaTu-ADR), 3,000 cells/well (NCI-H460, HeLa), 1,500 cells/well (Caco-2), or 1,000 cells/well (B16F10) in a 96-well multititer plate in 200 μL of their respective growth medium supplemented 10% fetal calf serum. After 24 hours, the cells of one plate (zero-point plate) were stained with crystal violet (see below), while the medium of the other plates was supplemented with the test substances in various concentrations (0 μM, as well as in the range of 0.0001-10 μM; the final concentration of the solvent dimethyl sulfoxide was adjusted to 0.1%) using a Hewlett-Packard HP D300 Digital Dispenser. The cells were incubated for 4 days in the presence of test substances. Cell proliferation was determined by staining the cells with crystal violet: the cells were fixed by adding 20 μl/measuring point of an 11% glutaric aldehyde solution for 15 minutes at room temperature. After three washing cycles of the fixed cells with water, the plates were dried at room temperature. The cells were stained by adding 100 μl/measuring point of a 0.1% crystal violet solution (pH 3.0). After three washing cycles of the stained cells with water, the plates were dried at room temperature. The dye was dissolved by adding 100 μl/measuring point of a 10% acetic acid solution. The extinction was determined by photometry at a wavelength of 595 nm. The change of cell number, in percent, was calculated by normalization of the measured values to the extinction values of the zero-point plate (=0%) and the extinction of the untreated ([…]) cells (=100%). The IC50 values (inhibitory concentration at 50% of maximal effect) were determined by means of a 4 parameter fit. A2780 human ovarian carcinoma cells (ECACC #93112519) and non-adherent MOLM-13 human acute myeloid leukemia cells (DSMZ ACC 554) were seeded at a density of 3,000 cell/well (A2780) or 5,000 cells/well (MOLM-13) in a 96-well multititer plate in 150 μL of growth medium supplemented 10% fetal calf serum. After 24 hours, cell viability of one plate (zero-point plate) was determined with the Cell Titre-Glo Luminescent Cell Viability Assay (Promega), while the medium of the other plates was supplemented with the test substances in various concentrations (0 μM, as well as in the range of 0.0001-10 μM; the final concentration of the solvent dimethyl sulfoxide was adjusted to 0.1%) using a Hewlett-Packard HP D300 Digital Dispenser. Cell viability was assessed after 72-hour exposure with the Cell Titre-Glo Luminescent Cell Viability Assay (Promega). IC50 values (inhibitory concentration at 50% of maximal effect) were determined by means of a 4 parameter fit on measurement data which were normalized to vehicle (DMSO) treated cells (=100%) and measurement readings taken immediately before compound exposure (=0%).

Assay [2] concerns B16F10 cells. In words: Proliferation assay, B16F10. The class given is cell-based. Conditions: Mus musculus, B16-F10, 96 h; 4 days, crystal violet; read-out: Inhibition of B16F10 cell proliferation IC50. On the procedure:
as §1

In assay [3] the test system is NCI-H460 cells. The assay is described as follows: Proliferation assay, NCI-H460. The class given is cell-based. The following applies: Homo sapiens, NCI-H460, 96 h; 4 days, crystal violet; read-out: Inhibition of NCI-H460 cell proliferation IC50. On the procedure:
as §1

In assay [4] the target is T1, CDK9/CycT1 (Homo sapiens, UniProt P50750).
T1 construct: Recombinant full-length His-tagged human CDK9 and CycT1; His; purchased Life Technologies PV4131; host or cells: insect cells
T1 sequence (P50750 whole entry): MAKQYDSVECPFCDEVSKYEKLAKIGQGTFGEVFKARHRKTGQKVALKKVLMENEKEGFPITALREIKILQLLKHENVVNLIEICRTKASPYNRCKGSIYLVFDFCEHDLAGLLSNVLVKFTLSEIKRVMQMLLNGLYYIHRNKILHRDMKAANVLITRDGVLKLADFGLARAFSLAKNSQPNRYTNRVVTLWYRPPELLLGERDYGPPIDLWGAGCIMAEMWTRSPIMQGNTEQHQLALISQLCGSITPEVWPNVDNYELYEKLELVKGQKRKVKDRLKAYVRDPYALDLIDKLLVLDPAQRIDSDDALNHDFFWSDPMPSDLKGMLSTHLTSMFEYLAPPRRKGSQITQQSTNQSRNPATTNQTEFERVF
T1 sequence (O60563 whole entry partner): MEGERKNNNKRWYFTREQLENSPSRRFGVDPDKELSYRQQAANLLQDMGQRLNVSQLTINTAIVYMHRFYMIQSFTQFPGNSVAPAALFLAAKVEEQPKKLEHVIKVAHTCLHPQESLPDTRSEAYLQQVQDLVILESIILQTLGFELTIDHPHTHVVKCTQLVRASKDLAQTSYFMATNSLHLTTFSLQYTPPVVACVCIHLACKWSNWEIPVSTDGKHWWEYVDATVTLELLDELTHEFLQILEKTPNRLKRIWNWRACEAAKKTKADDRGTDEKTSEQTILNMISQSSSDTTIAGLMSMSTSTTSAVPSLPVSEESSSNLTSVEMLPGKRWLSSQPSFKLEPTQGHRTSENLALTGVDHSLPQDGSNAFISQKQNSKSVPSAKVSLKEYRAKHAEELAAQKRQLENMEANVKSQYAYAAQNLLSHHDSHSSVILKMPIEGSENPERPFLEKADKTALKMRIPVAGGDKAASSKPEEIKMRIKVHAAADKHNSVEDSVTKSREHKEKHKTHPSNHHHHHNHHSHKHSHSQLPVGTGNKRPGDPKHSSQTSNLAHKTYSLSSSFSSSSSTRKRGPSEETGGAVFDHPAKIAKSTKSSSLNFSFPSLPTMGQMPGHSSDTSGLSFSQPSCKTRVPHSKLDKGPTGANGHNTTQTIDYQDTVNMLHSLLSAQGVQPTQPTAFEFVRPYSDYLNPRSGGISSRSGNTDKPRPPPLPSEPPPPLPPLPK
The assay is described as follows: CDK9/CycT1 high ATP kinase assay (TR-FRET, 2 mM ATP). In kind it is biochemical. The following applies: for IC50: 2 mM ATP, Method 1b, lower limit for IC50s about 1-2 nM; for Selectivity high ATP CDK9 over high ATP CDK2: IC50 (high ATP CDK2)/IC50 (high ATP CDK9): ratio from Methods 1b and 2b, minimal values for IC50s near the assay limit. The essentials:
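Full-length His-tagged human CDK9/CycT1 from insect cells (about 0.5 μg/ml) was preincubated with compound for 15 min at 22° C in 50 mM Tris/HCl pH 8.0, 10 mM MgCl2, 1.0 mM DTT. Phosphorylation was detected by TR-FRET with anti-RB(pSer807/pSer811) antibody, as the 665/622 nm ratio normalised to no-inhibitor and no-enzyme controls.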
(In general: TR-FRET usually uses a lanthanide donor and a delayed reading to cut background.)

Assay [5] deals with DU145 cells. The assay is described as follows: Proliferation assay, DU145. In kind it is cell-based. The following applies: Homo sapiens, DU-145, 96 h; 4 days, crystal violet; read-out: Inhibition of DU145 cell proliferation IC50. The method, then: as §1

Molecules are shown by their SMILES.

In the case of `CC(C)(C)OC(=O)N=S(C)(=O)Cc1cc2cc(c1)OCCCCOc1cc(ccc1F)-c1nc(ncc1F)N2` (racemic) [Example 3, (rac)-tert-butyl [{[3,20-difluoro-13,18-dioxa-5,7,25-triazatetracyclo[17.3.1.1^2,6.1^8,12]pentacosa-1(23),2(25),3,5,8(24),9,11,19,21-nonaen-10-yl]methyl}(methyl)oxido-λ^6-sulfanylidene]carbamate], the IC50 in assay [1] turned out to be 244 nM; in assay [2] it was 270 nM; in assay [3], 267 nM; in assay [4], 5 nM; in assay [5], 206 nM. The “Selectivity high ATP CDK9 over high ATP CDK2: IC50 (high ATP CDK2)/IC50 (high ATP CDK9)” value (“Selectivity high ATP CDK9” below) in assay [4] is reported as above 4000.
In the case of `CC1CCCOc2cc(ccc2F)-c2cc(ncc2F)Nc2cc(CS(C)(=N)=O)cc(n2)O1` (single isomer, unassigned) [Example 17, 3,20-difluoro-14-methyl-10-[(S-methylsulfonimidoyl)methyl]-13,18-dioxa-5,7,24-triazatetracyclo[17.3.1.1^2,6.1^8,12]pentacosa-1(23),2(25),3,5,8(24),9,11,19,21-nonaene], the “Selectivity high ATP CDK9” value in assay [4] was determined as 132.
`CS(=N)(=O)Cc1cc2nc(c1)OCCCCOc1cc(ccc1F)-c1cc(ncc1F)N2` (racemic) [Example 2, (rac)-3,20-difluoro-10-[(S-methylsulfonimidoyl)methyl]-13,18-dioxa-5,7,24-triazatetracyclo[17.3.1.1^2,6.1^8,12]pentacosa-1(23),2(25),3,5,8(24),9,11,19,21-nonaene]: the IC50 in assay [1] was determined as 90 nM; in assay [2], 110 nM; in assay [3], 157 nM; in assay [4], 7 nM; in assay [5] it was 85 nM. In addition, the “Selectivity high ATP CDK9” value in assay [4] was 105.
For the compound `CS(=N)(=O)Cc1cc2cc(c1)OCCCOc1cc(ccc1F)-c1nc(ncc1F)N2` (racemic) [Example 10, (rac)-3,19-difluoro-10-[(S-methylsulfonimidoyl)methyl]-13,17-dioxa-5,7,24-triazatetracyclo[16.3.1.1^2,6.1^8,12]tetracosa-1(22),2(24),3,5,8(23),9,11,18,20-nonaene], the IC50 in assay [1] turned out to be 128 nM; in assay [2] it was 209 nM; in assay [3], 238 nM; in assay [4], 25 nM; in assay [5], 180 nM. Besides, the “Selectivity high ATP CDK9” value in assay [4] is 190.
`CC1CCCCOc2cc(ccc2F)-c2cc(ncc2F)Nc2cc(CS(C)(=N)=O)cc(n2)O1` (single isomer, unassigned) [Example 22, 3,21-difluoro-14-methyl-10-[(S-methylsulfonimidoyl)methyl]-13,19-dioxa-5,7,25-triazatetracyclo[18.3.1.1^2,6.1^8,12]hexacosa-1(24),2(26),3,5,8(25),9,11,20,22-nonaene]: the “Selectivity high ATP CDK9” value in assay [4] is 251.
Turning to `CS(=N)(=O)Cc1cc2cc(c1)OCCCCOc1c(F)ccc(c1F)-c1nc(ncc1F)N2` (racemic) [Example 8, (rac)-3,20,23-trifluoro-10-[(S-methylsulfonimidoyl)methyl]-13,18-dioxa-5,7,25-triazatetracyclo[17.3.1.1^2,6.1^8,12]pentacosa-1(23),2(25),3,5,8(24),9,11,19,21-nonaene], the IC50 in assay [1] amounted to 177 nM; in assay [2] it was 224 nM; in assay [3] it was 217 nM; in assay [4] it was 17 nM; in assay [5], 196 nM. Besides, the “Selectivity high ATP CDK9” value in assay [4] turned out to be 385.
Take `CC1CCCOc2cc(ccc2F)-c2cc(ncc2F)Nc2cc(CS(C)(=N)=O)cc(n2)O1` (single isomer, unassigned) [Example 16, 3,20-difluoro-14-methyl-10-[(S-methylsulfonimidoyl)methyl]-13,18-dioxa-5,7,24-triazatetracyclo[17.3.1.1^2,6.1^8,12]pentacosa-1(23),2(25),3,5,8(24),9,11,19,21-nonaene]: in assay [4], the “Selectivity high ATP CDK9” value is reported as 72.
Take `CS(=N)(=O)Cc1cc2cc(c1)OCCCCOc1cc(ccc1F)-c1nc(ncc1F)N2` (racemic) [Example 4, (rac)-3,20-difluoro-10-[(S-methylsulfonimidoyl)methyl]-13,18-dioxa-5,7,25-triazatetracyclo[17.3.1.1^2,6.1^8,12]pentacosa-1(23),2(25),3,5,8(24),9,11,19,21-nonaene]: the IC50 worked out at 150 nM in assay [1]; 176 nM in assay [2]; 331 nM in assay [3]; 3 nM in assay [4]; 138 nM in assay [5]. Besides, the “Selectivity high ATP CDK9” value in assay [4] is 513.
For the compound `CC(C)(C)OC(=O)N=S(C)(=O)Cc1cc2cc(c1)OCCCCCOc1cc(ccc1F)-c1nc(ncc1F)N2` (racemic) [Example 5, (rac)-tert-butyl [{[3,21-difluoro-13,19-dioxa-5,7,26-triazatetracyclo[18.3.1.1^2,6.1^8,12]hexacosa-1(24),2(26),3,5,8(25),9,11,20,22-nonaen-10-yl]methyl}(methyl)oxido-λ^6-sulfanylidene]carbamate], the IC50 was found to be 964 nM in assay [1]; 993 nM in assay [2]; 479 nM in assay [3]; 24 nM in assay [4]; 585 nM in assay [5]. Besides, the “Selectivity high ATP CDK9” value in assay [4] was above 833.
`CS(=N)(=O)Cc1cc2cc(c1)OCCCCCOc1cc(ccc1F)-c1nc(ncc1F)N2` (racemic) [Example 6, (rac)-3,21-difluoro-10-[(S-methylsulfonimidoyl)methyl]-13,19-dioxa-5,7,26-triazatetracyclo[18.3.1.1^2,6.1^8,12]hexacosa-1(24),2(26),3,5,8(25),9,11,20,22-nonaene]: the IC50 in assay [1] is 199 nM; in assay [2] it was 171 nM; in assay [3], 277 nM; in assay [4], 5 nM; in assay [5], 121 nM. Besides, the “Selectivity high ATP CDK9” value in assay [4] was 3240.
In the case of `CC1CCCCOc2cc(ccc2F)-c2cc(ncc2F)Nc2cc(CS(C)(=N)=O)cc(n2)O1` (single isomer, unassigned) [Example 21, 3,21-difluoro-14-methyl-10-[(S-methylsulfonimidoyl)methyl]-13,19-dioxa-5,7,25-triazatetracyclo[18.3.1.1^2,6.1^8,12]hexacosa-1(24),2(26),3,5,8(25),9,11,20,22-nonaene], the “Selectivity high ATP CDK9” value in assay [4] is 1225.
Take `CC1CCCOc2cc(ccc2F)-c2cc(ncc2F)Nc2cc(CS(C)(=O)=O)cc(n2)O1` (racemic) [Example 28, 3,20-difluoro-14-methyl-10-[(methylsulfonyl)methyl]-13,18-dioxa-5,7,24-triazatetracyclo[17.3.1.1^2,6.1^8,12]pentacosa-1(23),2(25),3,5,8(24),9,11,19,21-nonaene]: in assay [4], the “Selectivity high ATP CDK9” value is recorded as 189.

The values above are taken from patent publication US11254690B2, “PTEFb inhibiting macrocyclic compounds” (BAYER AKTIENGESELLSCHAFT, priority 2017, dated 2022).
